From patent publication US6211244A, “Calcium receptor-active compounds” (priority 1995, dated 2001)

Target: T1, human calcium receptor (Homo sapiens, UniProt P41180, R990G)
T1 construct: expressed in transfected cells; host or cells: HEK 293
T1 sequence (P41180 20-1078 R990G): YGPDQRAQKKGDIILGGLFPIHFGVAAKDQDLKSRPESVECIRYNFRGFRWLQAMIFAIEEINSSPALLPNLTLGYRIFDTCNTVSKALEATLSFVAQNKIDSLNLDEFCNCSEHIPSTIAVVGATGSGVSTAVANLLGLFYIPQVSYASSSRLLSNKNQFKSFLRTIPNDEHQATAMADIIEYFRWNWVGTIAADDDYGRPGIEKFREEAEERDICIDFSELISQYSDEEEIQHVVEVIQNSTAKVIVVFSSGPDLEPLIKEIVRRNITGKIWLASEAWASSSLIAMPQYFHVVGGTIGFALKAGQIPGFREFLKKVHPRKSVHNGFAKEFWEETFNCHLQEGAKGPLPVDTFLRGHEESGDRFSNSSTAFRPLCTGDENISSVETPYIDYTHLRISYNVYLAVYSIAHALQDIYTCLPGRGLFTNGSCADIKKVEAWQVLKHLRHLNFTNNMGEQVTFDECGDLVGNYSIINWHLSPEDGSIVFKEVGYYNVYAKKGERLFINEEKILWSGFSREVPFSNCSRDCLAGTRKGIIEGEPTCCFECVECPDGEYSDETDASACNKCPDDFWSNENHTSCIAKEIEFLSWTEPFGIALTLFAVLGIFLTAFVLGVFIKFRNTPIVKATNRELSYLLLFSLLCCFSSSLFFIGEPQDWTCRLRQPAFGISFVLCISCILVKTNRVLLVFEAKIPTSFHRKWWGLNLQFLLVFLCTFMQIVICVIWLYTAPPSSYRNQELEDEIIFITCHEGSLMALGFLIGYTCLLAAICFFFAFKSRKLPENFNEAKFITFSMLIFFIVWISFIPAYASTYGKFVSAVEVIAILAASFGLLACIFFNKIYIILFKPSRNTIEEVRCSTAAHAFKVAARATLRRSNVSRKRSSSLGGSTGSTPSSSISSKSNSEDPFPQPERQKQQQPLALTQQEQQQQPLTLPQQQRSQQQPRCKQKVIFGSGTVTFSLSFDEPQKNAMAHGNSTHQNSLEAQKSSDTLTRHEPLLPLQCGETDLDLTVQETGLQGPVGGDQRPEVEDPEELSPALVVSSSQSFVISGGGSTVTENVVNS
Test: increases in [Ca^2+ ]i in HEK-293 cells expressing the human calcium receptor (fura-2 loaded HEK 293/pHuPCaR4.0 cells), % activity
Type: cell-based
Settings: for activity at […]: HEK293

Compound	% activity (33 ng/mL) [%]	% activity (330 ng/mL) [%]	% activity (3300 ng/mL) [%]	% activity (330 ng/mL, listed as 4U) [%]	activity at […] (33 ng/mL) [%]	activity at […] (330 ng/mL) [%]
COc1ccccc1CCCN[C@H](C)c1cccc2ccccc12 [Compound 16I]	96	117	121	–	–	–
COc1ccc(C(C)NC(C)c2cccc3ccccc23)cc1 (centres unmarked) [Compound 16J]	47	76	92	–	–	–
COc1ccc([C@@H](C)N[C@H](C)c2cccc(OC)c2)cc1 [Compound 16L, (R,R)-N-[1-(4-methoxyphenyl)ethyl]-1-(3-methoxyphenyl)ethylamine]	98	138	146	–	–	–
COc1ccc([C@@H](C)N[C@@H](C)c2cccc(OC)c2)cc1 [Compound 16M, (S,R)-N-[1-(4-methoxyphenyl)ethyl]-1-(3-methoxyphenyl)ethylamine]	11	68	130	–	–	–
COc1cccc(C(C)NC(C)c2cccc(OC)c2)c1 (centres unmarked) [Compound 16N]	82	159	122	–	–	–
COc1cccc(C(C)NC(C)c2cccc(OC)c2)c1 (centres unmarked) [Compound 16O]	21	81	129	–	–	–
C[C@@H](NCc1ccc2c(c1)OCO2)c1cccc2ccccc12 [Compound 16R]	76	100	–	–	–	–
COc1cc(C)c(CN[C@H](C)c2cccc3ccccc23)cc1C [Compound 16U]	50	85	–	–	–	–
CCOc1ccc(CN[C@H](C)c2cccc3ccccc23)cc1 [Compound 16W]	73	102	–	–	–	–
C[C@@H](NCc1ccc(C#N)cc1)c1cccc2ccccc12 [Compound 16Z]	51	88	–	–	–	–
CC(=O)c1ccc(CN[C@H](C)c2cccc3ccccc23)cc1 [Compound 17C]	99	120	113	–	–	–
C[C@@H](NCc1ccc(Br)cc1)c1cccc2ccccc12 [Compound 17D]	91	108	–	–	–	–
C[C@@H](NCc1ccc(I)cc1)c1cccc2ccccc12 [Compound 17E]	110	110	116	–	–	–
C[C@@H](NCc1ccc(C(F)(F)F)cc1)c1cccc2ccccc12 [Compound 17F]	90	111	–	–	–	–
COc1ccc(C(N[C@H](C)c2cccc3ccccc23)C2CC2)cc1 (some centres unmarked) [Compound 17H]	111	124	126	–	–	–
CC(NC(C)c1cccc2ccccc12)c1ccc(Cl)c(Cl)c1 (centres unmarked) [Compound 17J]	122	118	116	–	–	–
CC(NC(C)c1cccc2ccccc12)c1ccc(Cl)c(Cl)c1 (centres unmarked) [Compound 17K]	73	97	98	–	–	–
COc1ccc(CN[C@H](C)c2cccc3ccccc23)c(C)c1C [Compound 17L]	78	104	111	–	–	–
COc1ccc(CN[C@H](C)c2cccc3ccccc23)cc1Cl.Cl [Compound 17M, N-(3-chloro-4-methoxybenzyl)-(R)-1-(1-naphthyl) ethylamine hydrochloride]	99	115	–	–	–	–
Cc1ccc([C@@H](C)N[C@H](C)c2cccc3ccccc23)cc1C [Compound 17N]	86	108	–	–	–	–
COc1cccc([C@@H](C)NCCCc2ccccc2I)c1 [Compound 17R]	65	98	–	–	–	–
COc1ccc(CNCc2ccccc2OC)cc1C [Compound 17V]	27	66	91	–	–	–
Cc1cc(C(C)NC(C)c2cccc3ccccc23)ccc1O (centres unmarked) [Compound 17W]	67	92	–	–	–	–
COc1ccc(CNCc2cccc3ccccc23)cc1C [Compound 17Y]	79	94	109	–	–	–
COc1ccc(CNC(C)c2cccc3ccccc23)cc1C (centres unmarked) [Compound 17Z]	73	99	–	–	–	–

Compound	% activity (33 ng/mL) [%]	% activity (330 ng/mL) [%]	% activity (3300 ng/mL) [%]	% activity (330 ng/mL, listed as 4U) [%]	activity at […] (33 ng/mL) [%]	activity at […] (330 ng/mL) [%]
COc1ccc(CNC(C)c2ccc(F)c3ccccc23)cc1C (centres unmarked) [Compound 18A]	88	111	–	–	–	–
COc1ccc(CNC(C)c2c(OC)ccc3ccccc23)cc1C (centres unmarked) [Compound 18B]	69	96	111	–	–	–
COc1ccc(CNC(C)c2ccc(OC)c3ccccc23)cc1C (centres unmarked) [Compound 18C]	60	87	99	–	–	–
COc1ccc(CNC(C)c2cccc(-c3ccccc3)c2)cc1C (centres unmarked) [Compound 18T]	52	74	99	–	–	–
C[C@@H](NCCCc1ccccc1Cl)c1cccc(OCC(F)(F)F)c1 [Compound 20Y]	74	95	117	–	–	–
COc1cccc([C@@H](C)NC(C)CCc2ccccc2Cl)c1 (some centres unmarked) [Compound 21C = 4U]	–	–	–	72	–	–
COc1cccc([C@@H](C)N[C@@H](C)CCc2ccccc2)c1 [Compound 21E, (S,R)-N-(4-pbenyl-2-butyl)-1-(3-methoxyphenyl)ethylamine]	64	94	–	–	–	–
COc1cccc([C@@H](C)NCCCc2cccc(OC(F)(F)F)c2)c1 [Compound 21M]	58	102	–	–	–	–
COc1cccc([C@@H](C)NCCCc2ccc(OC(F)(F)F)cc2)c1 [Compound 21N]	42	98	124	–	–	–
COc1cccc([C@@H](C)NCCCc2ccccc2C(F)(F)F)c1 [Compound 21O]	75	109	–	–	–	–
COc1cccc([C@@H](C)NCCCc2cccc(C(F)(F)F)c2)c1 [Compound 21P]	56	92	–	–	–	–
COc1cccc([C@@H](C)NCCCc2ccccc2F)c1 [Compound 21R]	66	100	–	–	–	–
CCCOc1cccc([C@@H](C)NCCCc2ccccc2Cl)c1 [Compound 21S]	85	131	132	–	–	–
CC(C)Oc1cccc([C@@H](C)NCCCc2ccccc2Cl)c1 [Compound 21T]	53	112	133	–	–	–
C[C@@H](NCCCc1ccccc1Cl)c1cccc(OCC(F)F)c1 [Compound 21V]	99	116	122	–	–	–
COc1cccc([C@@H](C)N[C@@H](C)CCc2cccc(C(F)(F)F)c2)c1 [Compound 21X]	51	101	119	–	–	–
COc1cccc([C@@H](C)N[C@H](C)CCc2cccc(C(F)(F)F)c2)c1 [Compound 21Y, (R,R)-N-[4-(3-trifluoromethylphenyl)-2-butyl]-1-(3-methoxyphenyl)ethylamine]	68	100	–	–	–	–
C[C@@H](NCCCc1cccc(C(F)(F)F)c1)c1cccc2ccccc12 [Compound 22J]	71	99	–	–	–	–
C[C@H](CCc1cccc(OC(F)(F)F)c1)N[C@@H](C)c1cccc2ccccc12 [Compound 22X, (S,R)-N-[4-(3-trifluoromethoxyphenyl)-2-butyl]-1-(1-naphthyl)ethylamine]	–	–	–	–	48	86
C[C@H](CCc1cccc(OC(F)(F)F)c1)N[C@H](C)c1cccc2ccccc12 [Compound 22Y, (R,R)-N-[4-(3-trifluoromethoxyphenyl)-2-butyl]-1-(1-naphthyl)ethylamine]	–	–	–	–	64	114
COc1cccc([C@@H](C)N[C@H](C)CCc2cccc(OC(F)(F)F)c2)c1 [Compound 23A, (R,R)-N-[4-(3-trifluoromethoxyphenyl)-2-butyl]-1-(3-methoxyphenyl)ethylamine]	67	103	–	–	–	–
Cc1ccc(CNCc2cccc3c(Br)cccc23)cc1C [Compound 23D]	35	66	91	–	–	–
C[C@@H](NCc1cccc(OC(F)(F)F)c1)c1cccc2ccccc12 [Compound 23E]	102	113	137	–	–	–
C[C@@H](NCc1ccc(OC(F)(F)F)cc1)c1cccc2ccccc12 [Compound 23F]	45	82	–	–	–	–
